According to patent US20230312587A1, “PTERIDINONE COMPOUNDS AND USES THEREOF” (Vertex Pharmaceutical Incorporated, priority 2018, published 2023):

What follows are compounds tested on Colo205-TCF/LEF-Luciferase (Luc) tumor (assay: In vivo inhibition of TCF/LEF reporter activity in Colo-205 tumors). Details: TCF/LEF luciferase reporter in Colo-205 tumors, nu/nu mice, oral gavage.
Set-up: concentration or dose not given beside the values
In short: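 Female nu/nu mice carried subcutaneous Colo205-TCF/LEF-luciferase tumours (200–500 mm^3), n=4 per group. Compound was given by oral gavage in 1:3:5:1 EtOH:DMSO:PEG-400:H2O at 10 ml/kg, with vehicle as control. Luciferase activity in tumour lysates (Steady-Glo) was normalised to BCA protein.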
With `Cc1nc(NCc2cnn(Cc3ccc(C(F)(F)F)nc3[C@@H](C)O)c2)nc2c1NC(=O)[C@H](C)N2C` (single isomer, unassigned) [Compound 420] the “Percent Remaining Activity at 8 hrs after Dosing” value was 28%.
In the case of `Cc1nc(NCc2cnn(Cc3ccc(F)cc3)c2)nc2c1N(C)C(=O)[C@H](C)N2C` [Compound 1, (7S)-2-(((1-(4-fluorobenzyl)-1H-pyrazol-4-yl)methyl)amino)-4,5,7,8-tetramethyl-7,8-dihydropteridin-6(5H)-one], the “Percent Remaining Activity at 8 hrs after Dosing” value is reported as 32%.

These compounds were tested on HepG2 WFS1 KO (assay: In vitro cell viability (CellTiter-Glo), HepG2 WFS1 KO). Details: HepG2 WFS1 knockout, 96 hours; read-out: HepG2 WFS1 KO viability.
Assay type: cell-based
Description: A double cleavage strategy was employed to remove large fragments from the WFS1 locus. Suitable target sites in WFS1 exon 8 were first selected using CRISPR design software to rank suitable target sites and computationally predict off-target sites for each intended target. Six top guide RNA sequences are identified and screened for activity using the Surveyor Mutation Detection Kit (Integrated DNA Technologies). Then, the best 2 guide RNAs were cloned into GeneArt OFP CRISPR nuclease vectors (Thermofisher, Cat #A21174) separately and co-transfected into HepG2 cells using nucleofection (4D Nucleofector X, Lonza). Cells were sorted by FACS 48 hrs later to enrich for the OFP positive cell population. The OFP positive cell population were plated into 96-well plates at 0.5-5 cells/well to isolate clonal cell lines. After allowing cells to expand for 2-3 weeks, plates were inspected for presence of colonies. When colonies became more than 70% confluent, they were dissociated with trypsin and were further expanded. Cell clones with homozygous double cleavage of WFS1 exon 8 were detected with PCR and confirmed with DNA sequencing.
HEK293 cells containing empty pCLPCx vector (HEK293 empty), HEK293 cells stably over-expression WFS1 (HEK293 WFS1), HepG2, and HepG2 cells where WFS1 was depleted via CRISPR/Cas9 (HepG2 WFS1 KO) cells were plated into 96-well black plates (Corning, product #3904) in 100 microliters of complete DMEM cell culture media [DMEM (Life Technologies, product #11960-051) media supplemented with 10% FBS (Hyclone, catalog #SH30071.03), antimycotic/antibiotic (Life Technologies, product #15240-062), and Glutamax (Life Technologies, product #35050-061)] at 1,000 (HEK293) or 5,000 (HepG2) cells per well. Cells were allowed to attach and grow overnight, after which compounds are added at various concentrations. Cell viability was assessed 96 hrs after compound addition with CellTiter-Glo reagent (Promega, catalog #G7570) according to manufacturer's protocol and measurement on a Pherastar luminescence plate reader (BMG Labtech).
To determine the effect of WFS1 depletion on compound mediated inhibition of cell viability, parental HepG2 cells and HepG2 cells where WFS1 was deleted by CRISPR/Cas9 were exposed to increasing concentrations of either Compound 136 or Compound 253 for 96 hours after which time viability was determined using Cell Titer Glo reagent (Promega). […] The IC50s for the viability of both the HepG2 parental and WFS1 knockout cells are summarized in Table 47: A<0.5 μM; 0.5 μM≤<2.0 μM; 2.0 μM≤C<10.0 μM; D≥[…].
With “(7S)-2-(((1-((6-fluoro-2-isopropylpyridin-3-yl)methyl)-1H-pyrazol-4-yl)methyl)(methyl)amino)-7-isopropyl-4,8-dimethyl-7,8-dihydropteridin-6(5H)-one [Compound 430]” the IC50 was at least 10 µM.

Same assay, conditions: Homo sapiens; HepG2 WFS1 knockout, 96 hours; read-out: HepG2 WFS1 KO viability
With `Cc1nc(NCc2cnn(Cc3ccc(C(F)(F)F)nc3[C@@H](C)O)c2)nc2c1NC(=O)[C@H](C)N2C` (single isomer, unassigned) [Compound 420] the IC50 was at least 10 µM.
`Cc1nc(NCc2cnn(Cc3ccc(F)cc3)c2)nc2c1N(C)C(=O)[C@H](C)N2C` [Compound 1, (7S)-2-(((1-(4-fluorobenzyl)-1H-pyrazol-4-yl)methyl)amino)-4,5,7,8-tetramethyl-7,8-dihydropteridin-6(5H)-one] showed an IC50 of at least 10 µM.
`Cc1nc(NCc2cnn(CCc3ccc(F)cc3)c2)nc2c1NC(=O)[C@H](C)N2C` [Compound 6, (7S)-2-(((1-(4-fluorophenethyl)-1H-pyrazol-4-yl)methyl)amino)-4,7,8-trimethyl-7,8-dihydropteridin-6(5H)-one] was tested, and the IC50 was at least 10 µM.
With `Cc1nc(NCc2cnn(CC3CCC3)c2)nc2c1N(C)C(=O)[C@H](C)N2C` [Compound 7, (7S)-2-(((1-(cyclobutylmethyl)-1H-pyrazol-4-yl)methyl)amino)-4,5,7,8-tetramethyl-7,8-dihydropteridin-6(5H)-one] the IC50 was at least 10 µM.
Compound `Cc1nc(NCc2cnn(CCc3ccc(F)cc3)c2)nc2c1N(C)C(=O)[C@H](C)N2C` [Compound 8, (7S)-2-(((1-(4-fluorophenethyl)-1H-pyrazol-4-yl)methyl)amino)-4,5,7,8-tetramethyl-7,8-dihydropteridin-6(5H)-one] has an IC50 of at least 10 µM.
`CC[C@H]1C(=O)Nc2cnc(NCc3cnn(Cc4ccc(F)cc4)c3)nc2N1C` [Compound 9, (7S)-7-ethyl-2-(((1-(4-fluorobenzyl)-1H-pyrazol-4-yl)methyl)amino)-8-methyl-7,8-dihydropteridin-6(5H)-one] was tested, and the IC50 was at least 10 µM.
In the case of `Cc1nc(NCc2cnn(C[C@H](C)c3ccc(F)cc3)c2)nc2c1NC(=O)[C@H](C)N2C` [Compound 96, (7S)-2-(((1-((R)-2-(4-fluorophenyl)propyl)-1H-pyrazol-4-yl)methyl)amino)-4,7,8-trimethyl-7,8-dihydropteridin-6(5H)-one], the IC50 is reported as at least 10 µM.
`Cc1nc(NCc2cnn(CCC3CCOCC3)c2)nc2c1NC(=O)[C@H](C)N2C` [Compound 115, (7S)-4,7,8-trimethyl-2-(((1-(2-(tetrahydro-2H-pyran-4-yl)ethyl)-1H-pyrazol-4-yl)methyl)amino)-7,8-dihydropteridin-6(5H)-one] was tested, and the IC50 was at least 10 µM.
In the case of `CCOc1ccc(CCn2cc(CNc3ncc4c(n3)N(C)[C@@H](C)C(=O)N4)cn2)cc1` [Compound 121, (7S)-2-(((1-(4-ethoxyphenethyl)-1H-pyrazol-4-yl)methyl)amino)-7,8-dimethyl-7,8-dihydropteridin-6(5H)-one], the IC50 is reported as at least 10 µM.
For `Cc1nc(NCc2cnn(C3CCN(C(=O)c4ccc(F)cc4)CC3)c2)nc2c1NC(=O)[C@H](C)N2C` [Compound 125, (7S)-2-(((1-(1-(4-Fluorobenzoyl)piperidin-4-yl)-1H-pyrazol-4-yl)methyl)amino)-4,7,8-trimethyl-7,8-dihydropteridin-6(5H)-one], the IC50 was at least 10 µM.
`Cc1nc(NCc2cnn(CC(C)(O)c3ccc(F)cc3)c2)nc2c1NC(=O)[C@H](C)N2C` (stereo partly drawn) [Compound 128, (7S)-2-(((1-(2-(4-fluorophenyl)-2-hydroxypropyl)-1H-pyrazol-4-yl)methyl)amino)-4,7,8-trimethyl-7,8-dihydropteridin-6(5H)-one] was tested, and the IC50 was at least 10 µM.
`Cc1nn(C)cc1Cn1cc(CNc2nc(C)c3c(n2)N(C)[C@@H](C)C(=O)N3)cn1` [Compound 139, (7S)-2-(((1-((1,3-dimethyl-1H-pyrazol-4-yl)methyl)-1H-pyrazol-4-yl)methyl)amino)-4,7,8-trimethyl-7,8-dihydropteridin-6(5H)-one] gave an IC50 of at least 10 µM.
Compound `Cc1ncc(Cn2cc(CNc3nc(C)c4c(n3)N(C)[C@@H](C)C(=O)N4)cn2)cn1` [Compound 163, (7S)-4,7,8-trimethyl-2-(((1-((2-methylpyrimidin-5-yl)methyl)-1H-pyrazol-4-yl)methyl)amino)-7,8-dihydropteridin-6(5H)-one] has an IC50 of at least 10 µM.
`Cc1cnc(C(F)(F)F)nc1-n1cc(CNc2ncc3c(n2)N(C)[C@@H](C)C(=O)N3)cn1` [Compound 164, (7S)-7,8-dimethyl-2-(((1-(5-methyl-2-(trifluoromethyl)pyrimidin-4-yl)-1H-pyrazol-4-yl)methyl)amino)-7,8-dihydropteridin-6(5H)-one] gave an IC50 of at least 10 µM.
Compound `Cc1nc(NCc2cnn(Cc3ccc(F)cc3)c2)nc2c1NC(=O)C1(CC1)N2` [Compound 222, 2′-(((1-(4-fluorobenzyl)-1H-pyrazol-4-yl)methyl)amino)-4′-methyl-5′,8′-dihydro-6′H-spiro[cyclopropane-1,7′-pteridin]-6′-one] has an IC50 of at least 10 µM.
`Cc1nc(N[C@H]2C[C@@H](Oc3cc(F)c(F)c(F)c3)C2)nc2c1NC(=O)[C@H](C)N2C` [Compound 247, (7S)-4,7,8-trimethyl-2-((cis-3-(3,4,5-trifluorophenoxy)cyclobutyl)amino)-7,8-dihydropteridin-6(5H)-one] was tested, and the IC50 was at least 10 µM.
In the case of `Cc1nc(NCc2cn(Cc3ccc(C(F)(F)F)nc3)nc2Br)nc2c1NC(=O)[C@H](C)N2C` [Compound 412, (S)-2-(((3-bromo-1-((6-(trifluoromethyl)pyridin-3-yl)methyl)-1H-pyrazol-4-yl)methyl)amino)-4,7,8-trimethyl-7,8-dihydropteridin-6(5H)-one], the IC50 is reported as at least 10 µM.
Work on `Cc1nc(NCc2cnn(Cc3cncc(F)c3)c2)nc2c1NC(=O)[C@H](C(C)C)N2C` [Compound 415, (7S)-2-(((1-((5-fluoropyridin-3-yl)methyl)-1H-pyrazol-4-yl)methyl)amino)-7-isopropyl-4,8-dimethyl-7,8-dihydropteridin-6(5H)-one] yielded an IC50 of at least 10 µM.
`Cc1nc(NCc2cnn(Cc3ccc(C(F)(F)F)nc3Cl)c2)nc2c1NC(=O)[C@H](C)N2C` [Compound 418, (7S)-2-(((1-((2-chloro-6-(trifluoromethyl)pyridin-3-yl)methyl)-1H-pyrazol-4-yl)methyl)amino)-4,7,8-trimethyl-7,8-dihydropteridin-6(5H)-one] gave an IC50 of at least 10 µM.
Compound `Cc1nc(NCc2cnn(Cc3ccc(C(F)(F)F)nc3C(C)O)c2)nc2c1NC(=O)[C@H](C)N2C` (stereo partly drawn) [Compound 419, (7S)-2-(((1-((2-((S)-1-hydroxyethyl)-6-(trifluoromethyl)pyridin-3-yl)methyl)-1H-pyrazol-4-yl)methyl)amino)-4,7,8-trimethyl-7,8-dihydropteridin-6(5H)-one] has an IC50 of at least 10 µM.
`Cc1nc(NCc2cnn(Cc3cnc(Cl)c(F)c3)c2)nc2c1NC(=O)[C@H](C(C)C)N2C` [Compound 424, (7S)-2-(((1-((6-chloro-5-fluoropyridin-3-yl)methyl)-1H-pyrazol-4-yl)methyl)amino)-7-isopropyl-4,8-dimethyl-7,8-dihydropteridin-6(5H)-one] was tested, and the IC50 was at least 10 µM.
Compound `CC[C@H]1C(=O)Nc2cnc(NCc3cnn(Cc4ccc(C(F)(F)F)nc4)c3)nc2N1C` [Compound 427, (7S)-7-ethyl-8-methyl-2-(((1-((6-(trifluoromethyl)pyridin-3-yl)methyl)-1H-pyrazol-4-yl)methyl)amino)-7,8-dihydropteridin-6(5H)-one] has an IC50 of at least 10 µM.
`Cc1nc(NCc2cn(Cc3ccc(C(F)(F)F)nc3)cn2)nc2c1NC(=O)[C@H](C)N2C` [Compound 428, (S)-4,7,8-trimethyl-2-(((1-((6-(trifluoromethyl)pyridin-3-yl)methyl)-1H-imidazol-4-yl)methyl)amino)-7,8-dihydropteridin-6(5H)-one] gave an IC50 of at least 10 µM.
